# Reference: paper PMC12304285 (British Journal of Cancer, 2025)
# “Also recorded” adds a separate entry of the source.
# Assays:
# [1] = Plasma and urine pharmacokinetics in patients; type: in vivo, human
# Description: Urine PK samples were collected at Cycle 0, Day 1 and at Cycle 1, Day 8 at the following timepoints: pre-dose (Cycle 0, Day 1 only), 0 to 8 h post dose and 8 to 24 h post-dose. […] Maximum observed concentration (Cmax) and time to reach Cmax (tmax) were determined directly by inspection of the concentration-time profiles. Terminal half-life slope (t½λz) was calculated as ln2/terminal elimination rate constant (λz). Area under the plasma concentration time curve from zero to last measurable concentration (AUClast) was calculated using the linear up/log down trapezoidal rule. AUClast was extrapolated to infinity using λz to obtain overall exposure (AUCinf). The amount of drug excreted unchanged in the urine (e.g. Ae0-t, Aeτ) for any given dosing interval was determined by multiplying the concentration of drug determined in the urine sample by the volume of the sample collected in that period.
# [2] = tested on: PBMCs collected from patients; assay: iMRM-MS of DDR proteins in PBMCs collected from patients on treatment; type: in vivo, human; conditions: doses up to 40 mg
# Description: Prior to assessing clinical trial samples, PBMCs from healthy volunteers were treated ex vivo to determine biomarkers modulated by AZD7648. […] Samples were pooled and analysed by iMRM-MS. During the clinical trial, patient blood samples were collected during cycle 1 (day 1 and day 8), cycle 2 (day 1) and at the end of treatment and were analysed by iMRM-MS [20–23]. On-treatment tumour biopsies were optional in the trial protocol and none were collected, so tumour PD studies were not conducted.
# Preparation of Clinical PBMCs and iMRM analysis
# Blood from patients was drawn into 8 mL Vacutainer CPT tubes (BD) before treatment, 2-8h post dose at C1D1, C1D8, C2D1 and at discontinuation.
# After inverting the tube 8 -10 times, it was centrifuged and the PBMC layer transferred into a new tube, washed once with ice cold PBS, centrifuged again to obtain a pellet which was then […]
# PBMC pellets were lysed with 8M Urea supplemented with proteases and phosphatases inhibitors, sonicated, clarified by centrifugation and quantified with Micro -BCA assay (Thermo - […]
# The samples were quality checked by SDS -PAGE followed by silver staining to evaluate the complexity of the obtained protein extract and assess the presence of most common blood contaminants (hemoglobulin and albumin). […]
# [3] = tested on: patients with advanced cancer; assay: Preliminary antitumour activity by RECIST v1.1 (best objective response, target lesion change, PFS);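 further: same imaging modality as baseline kept at every follow-up, response-evaluable patients had ≥1 measurable non-irradiated target lesion ≥10 mm longest diameter and received ≥1 study dose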
# Description: The imaging method used at baseline had to be used at all follow-up visits. The following parameters were estimated: percentage best change in target lesion; duration of response; objective response rate (ORR); and progression-free survival (PFS).
# Descriptive statistics were used for all variables, as appropriate, and calculated only when n ≥ 3. Where data were available for <3 patients, only minimum, maximum and number of observations were provided. Percentages were calculated using the analysis set total and for modules or doses, unless otherwise stated. […] PFS, including median time to PFS and PFS rate at a specific timepoint, was summarized using the Kaplan–Meier method. SAS® version 9.4 was used for all analyses. The PK analysis set included dosed patients for whom an adequate PK profile was obtained.
# [4] = 12 patients evaluable for objective response
smiles,measurement,setting,value
"Cc1cc2ncnn2cc1Nc1ncc2c(n1)n(C1CCOCC1)c(=O)n2C [AZD7648, 7-Methyl-2-[(7-methyl[1,2,4]triazolo[1,5-a]pyridin-6-yl)amino]-9-(tetrahydro-2H-pyran-4-yl)-7,9-dihydro-8H-purin-8-one]",exposure versus dose,[1]; 5 to 160 mg BID,increased in a broadly linear manner
same,fraction excreted unchanged in urine,"[1]; human, in vivo",5–10 % of the total administered dose
same,AUC(0-inf),"[1]; human, plasma, oral, 80 mg BID cohort, Cycle 0 Day 1 single dose, read-out: geoMean AUCinf",25.2 µM·h
same,Cmax,"[1]; human, plasma, oral, 80 mg BID cohort, Cycle 0 Day 1 single dose, read-out: geoMean Cmax",2460 nM
same,Tmax,"[1]; human, plasma, 5 to 160 mg, oral",1 to 2 h
same,drug exposure achieved,[1]; one patient at the 80 mg dose level,> 1 µM
same,activity on DDR protein markers in patient PBMCs,[2],did not show any activity; also recorded: not biologically active
same,Best objective response: Complete response,[3]; 5 mg BID (n = 1),0 n (%)
same,Best objective response: Death,[3]; 5 mg BID (n = 1),0 n (%)
same,Best objective response: Disease progression,[3]; 5 mg BID (n = 1),1 (100.0) n (%)
same,Best objective response: Not evaluable,[3]; 5 mg BID (n = 1),0 n (%)
same,Best objective response: Partial response,[3]; 5 mg BID (n = 1),0 n (%)
same,Best objective response: Stable disease,[3]; 5 mg BID (n = 1),0 n (%)
same,Best objective response: Complete response,[3]; 5 mg QD (n = 1),0 n (%)
same,Best objective response: Death,[3]; 5 mg QD (n = 1),0 n (%)
same,Best objective response: Disease progression,[3]; 5 mg QD (n = 1),0 n (%)
same,Best objective response: Not evaluable,[3]; 5 mg QD (n = 1),0 n (%)
same,Best objective response: Partial response,[3]; 5 mg QD (n = 1),0 n (%)
same,Best objective response: Stable disease,[3]; 5 mg QD (n = 1),1 (100.0) n (%)
same,Best objective response: Complete response,[3]; 10 mg BID (n = 1),0 n (%)
same,Best objective response: Death,[3]; 10 mg BID (n = 1),0 n (%)
same,Best objective response: Disease progression,[3]; 10 mg BID (n = 1),0 n (%)
same,Best objective response: Not evaluable,[3]; 10 mg BID (n = 1),0 n (%)
same,Best objective response: Partial response,[3]; 10 mg BID (n = 1),0 n (%)
same,Best objective response: Stable disease,[3]; 10 mg BID (n = 1),1 (100.0) n (%)
same,Best objective response: Complete response,[3]; 20 mg BID (n = 1),0 n (%)
same,Best objective response: Death,[3]; 20 mg BID (n = 1),0 n (%)
same,Best objective response: Disease progression,[3]; 20 mg BID (n = 1),1 (100.0) n (%)
same,Best objective response: Not evaluable,[3]; 20 mg BID (n = 1),0 n (%)
same,Best objective response: Partial response,[3]; 20 mg BID (n = 1),0 n (%)
same,Best objective response: Stable disease,[3]; 20 mg BID (n = 1),0 n (%)
same,Best objective response: Complete response,[3]; 40 mg BID (n = 2),0 n (%)
same,Best objective response: Death,[3]; 40 mg BID (n = 2),1 (50.0) n (%)
same,Best objective response: Disease progression,[3]; 40 mg BID (n = 2),1 (50.0) n (%)
same,Best objective response: Not evaluable,[3]; 40 mg BID (n = 2),0 n (%)
same,Best objective response: Partial response,[3]; 40 mg BID (n = 2),0 n (%)
same,Best objective response: Stable disease,[3]; 40 mg BID (n = 2),0 n (%)
same,Best objective response: Complete response,[3]; 80 mg BID (n = 4),0 n (%)
same,Best objective response: Death,[3]; 80 mg BID (n = 4),1 (25.0) n (%)
same,Best objective response: Disease progression,[3]; 80 mg BID (n = 4),1 (25.0) n (%)
same,Best objective response: Not evaluable,[3]; 80 mg BID (n = 4),1 (25.0) n (%)
same,Best objective response: Partial response,[3]; 80 mg BID (n = 4),0 n (%)
same,Best objective response: Stable disease,[3]; 80 mg BID (n = 4),1 (25.0) n (%)
same,Best objective response: Complete response,[3]; 160 mg BID (n = 2),0 n (%)
same,Best objective response: Death,[3]; 160 mg BID (n = 2),0 n (%)
same,Best objective response: Disease progression,[3]; 160 mg BID (n = 2),1 (50.0) n (%)
same,Best objective response: Not evaluable,[3]; 160 mg BID (n = 2),0 n (%)
same,Best objective response: Partial response,[3]; 160 mg BID (n = 2),0 n (%)
same,Best objective response: Stable disease,[3]; 160 mg BID (n = 2),1 (50.0) n (%)
same,patients who died due to disease progression,[3]; [4],16.7%
same,patients with RECIST disease progression,[3]; [4],41.7%
same,patients with RECIST stable disease,[3]; [4],33.3%
same,Best objective response: Complete response,[3]; All cohorts of the module,0 n (%)
same,Best objective response: Death,[3]; All cohorts of the module,2 (16.7) n (%)
same,Best objective response: Disease progression,[3]; All cohorts of the module,5 (41.7) n (%)
same,Best objective response: Not evaluable,[3]; All cohorts of the module,1 (8.3) n (%)
same,Best objective response: Partial response,[3]; All cohorts of the module,0 n (%)
same,Best objective response: Stable disease,[3]; All cohorts of the module,4 (33.3) n (%)
same,Median PFS,"[3]; Kaplan–Meier, all dose levels",1.91 months
same,PFS rate at 6 months,"[3]; Kaplan–Meier, all dose levels",23.08%
same,RECIST response observed,[3]; all dose levels,No responses; also recorded: No patient had a RECIST complete or partial response
same,percentage change in target lesion size from baseline,"[3]; one patient with stable disease, 80 mg BID",−29.2%
same,"best percentage change from baseline in target lesion size, increase of the patient capped in the waterfall plot",[3]; single patient,108.33%
